Experimental data published in BindingDB's records for doi:10.7270/Q2QR4VH9 (University of Pittsburgh, 2006).

Each compound was assayed against T1, Dual specificity protein phosphatase 1 (Homo sapiens, UniProt P28562) (assay: reproducibility of MKP-1 inhibition curves – biochemical, reproducibility testing, probe assessment, dose response (AID 563)).
T1 sequence (P28562 whole entry): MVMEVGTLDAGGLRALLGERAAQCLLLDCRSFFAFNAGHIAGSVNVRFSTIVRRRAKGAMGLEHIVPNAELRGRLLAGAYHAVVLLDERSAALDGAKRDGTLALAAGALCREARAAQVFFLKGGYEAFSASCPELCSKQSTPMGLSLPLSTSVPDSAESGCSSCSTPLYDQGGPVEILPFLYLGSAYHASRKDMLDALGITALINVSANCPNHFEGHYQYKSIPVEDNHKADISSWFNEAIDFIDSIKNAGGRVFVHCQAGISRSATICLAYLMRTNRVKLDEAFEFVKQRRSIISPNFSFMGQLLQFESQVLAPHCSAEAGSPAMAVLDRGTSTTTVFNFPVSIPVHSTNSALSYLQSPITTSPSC

Question: For CCOc1ccc2noc3c2c1C(=O)c1ccccc1-3 [MLS000106837], which IC50 is on record?
Answer: > 50 µM

Question: [O-]/[N+](=C/c1ccc(F)cc1)c1ccccc1 [(E)-(4-fluorobenzylidene)(phenyl)azane oxide] was tested. Which IC50 did it give?
Answer: > 50 µM

Question: How did the IC50 turn out when N#Cc1c(N2CCCC2)nc(N)c2c(N)nc(N3CCCC3)cc12 [SMR000061605] was run?
Answer: 18.8 µM

Question: O=C1c2ccccc2-c2onc3ccc(NCCCn4ccnc4)c1c23 [SMR000044769] was tested. Which IC50 did it give?
Answer: 27.7 µM

Question: O=C(Nc1ccccc1)c1ccc2nc(-c3ccco3)c(-c3ccco3)nc2c1 [2,3-di-2-furyl-N-phenyl-6-quinoxalinecarboxamide] was tested. Which IC50 did it give?
Answer: 35.7 µM

Question: For COc1ccc(-c2cc3nc(C4CCN(C(=O)OC(C)(C)C)CC4)c(C(=O)O)cn3n2)cc1 [2-(4-methoxyphenyl)-5-[1-[(2-methylpropan-2-yl)oxy-oxomethyl]-4-piperidinyl]-6-pyrazolo[1,5-a]pyrimidinecarboxylic acid], which IC50 is on record?
Answer: 33.9 µM

Question: For COc1ccc(-n2c(NC(=O)c3ccco3)c(C#N)c3nc4ccccc4nc32)cc1 [MLS000079925], which IC50 is on record?
Answer: 34.1 µM

Question: How did the IC50 turn out when CCc1ccc(NC(=O)CSc2nc3ccccc3c(=O)n2CCN2CCOCC2)cc1 [MLS000095236] was run?
Answer: > 50 µM

Question: Nc1c(N2CCCC2)cc(Cl)c2nonc12 [(7-chloro-5-pyrrolidino-benzofurazan-4-yl)amine] was tested. Which IC50 did it give?
Answer: > 50 µM

Question: How did the IC50 turn out when COc1ccc(Br)cc1C=c1sc2nc(-c3ccco3)nn2c1=O [5-[(5-bromanyl-2-methoxy-phenyl)methylidene]-2-(furan-2-yl)-[1,3]thiazolo[3,2-b][1,2,4]triazol-6-one] was run?
Answer: 12.8 µM

Question: How did the IC50 turn out when Cc1c(N=c2c(=O)c3ccccc3c2=O)c(=O)n(-c2ccccc2)n1C [MLS000105950] was run?
Answer: 26.2 µM

Question: How did the IC50 turn out when CCCCn1c(SCC(=O)c2ccc(OC)cc2OC)nc2cc(S(N)(=O)=O)ccc21 [1-butyl-2-[2-(2,4-dimethoxyphenyl)-2-oxidanylidene-ethyl]sulfanyl-benzimidazole-5-sulfonamide] was run?
Answer: 45.6 µM

Question: For CCCCCC#CCC#CCC#CCC#CCCCC(=O)O, which IC50 is on record?
Answer: 12.1 µM

Question: For CC1=C(/C=C/C(C)=C/C=C/C(C)=C/C(=O)O)C(C)(C)CCC1 [ALL-TRANS-RETINOIC ACID], which IC50 is on record?
Answer: 42.9 µM

Question: With CCn1nc(-c2ccccc2)nc2c(=O)n(C)c(=O)nc1-2 [1-Ethyl-6-methyl-3-phenyl-1H-pyrimido[5,4-e][1,2,4]triazine-5,7-dione] as the compound, how does the IC50 read?
Answer: 1.19 µM

Question: With CC(=O)[C@@H]1[C@@H]2C(=O)N(c3ccc(F)c(Cl)c3)C(=O)[C@@H]2C2c3ccccc3C=CN21 (stereo not given in full) [MLS000040594] as the compound, how does the IC50 read?
Answer: > 50 µM

Question: With Cc1cc(NC(=O)c2ccc(S(=O)(=O)N3CCCC3)cc2)nc2c1c(=O)oc1ccccc12 [MLS000091355] as the compound, how does the IC50 read?
Answer: 24.9 µM

Question: With O=C1C=C(NCc2ccc(Cl)c(Cl)c2)CC1 [3-[(3,4-dichlorobenzyl)amino]cyclopent-2-en-1-one] as the compound, how does the IC50 read?
Answer: > 50 µM

Question: Which IC50 does the source give for Cc1cccc(NC(=O)c2cc(NC(=O)C3CCCCC3C(=O)O)ccc2N2CCCCC2)c1 (stereo not given) [2-({[3-{[(3-methylphenyl)amino]carbonyl}-4-(1-piperidinyl)phenyl]amino}carbonyl)cyclohexanecarboxylic acid] here?
Answer: > 50 µM

Question: Which IC50 does the source give for CCOc1cc(/C=C(/C#N)c2ccc(F)cc2)ccc1OCc1ccc(C(=O)O)o1 [5-[[4-[(E)-2-cyano-2-(4-fluorophenyl)ethenyl]-2-ethoxyphenoxy]methyl]furan-2-carboxylic acid] here?
Answer: 36.7 µM

Question: Which IC50 does the source give for Nc1nc2c(s1)CCc1c-2cnn1-c1ccccc1 [MLS000085948] here?
Answer: > 50 µM

Question: For COC(=O)c1ccccc1NC(=O)CN1C(=O)C2CCCN2c2ncc(Cl)cc21 (stereo not given) [MLS000094302], which IC50 is on record?
Answer: 46.2 µM

Question: How did the IC50 turn out when [O-]/[N+](=C\c1ccc(OC(F)F)cc1)c1ccccc1 [1-[4-(difluoromethoxy)phenyl]-N-phenylmethanimine oxide] was run?
Answer: > 50 µM

Question: With O=C(OC1CCCCC1)c1ccc2c(c1)C1C=CCC1C(C(=O)O)N2 (stereo not given) [SMR000019385] as the compound, how does the IC50 read?
Answer: 14.5 µM

Question: For CCCSc1nnc(NC(=O)c2sc3nc(-c4cccs4)ccc3c2N)s1 [3-amino-N-(5-propylsulfanyl-1,3,4-thiadiazol-2-yl)-6-thiophen-2-ylthieno[2,3-b]pyridine-2-carboxamide], which IC50 is on record?
Answer: 21.8 µM

Question: Which IC50 does the source give for FC(F)(F)c1ccc(N2CCOCC2)c(Nc2nc3ccccc3n3cnnc23)c1 [MLS000093276] here?
Answer: > 50 µM

Question: Which IC50 does the source give for Cc1ccc(/C=C/C2=Cc3c(sc(NC(=O)CSc4nnc(N)[nH]4)c3C#N)C(C)(C)C2)o1 [2-[(5-azanyl-1H-1,2,4-triazol-3-yl)sulfanyl]-N-[3-cyano-7,7-dimethyl-5-[(E)-2-(5-methylfuran-2-yl)ethenyl]-6H-1-benzothiophen-2-yl]ethanamide] here?
Answer: 17.8 µM

Question: For CCOc1ccc(-c2cc3nc(C4CCN(C(=O)OC(C)(C)C)CC4)c(C(=O)O)cn3n2)cc1 [2-(4-ethoxyphenyl)-5-[1-[(2-methylpropan-2-yl)oxy-oxomethyl]-4-piperidinyl]-6-pyrazolo[1,5-a]pyrimidinecarboxylic acid], which IC50 is on record?
Answer: 30.5 µM

Question: With [O-]/[N+](=C\c1ccncc1)c1ccccc1 as the compound, how does the IC50 read?
Answer: > 50 µM

Question: For COc1ccc2noc3c2c1C(=O)c1ccccc1-3 [MLS000106874], which IC50 is on record?
Answer: 46.1 µM

Question: CC(C)(C)N1C(=O)Cc2c1nc(N)c1c(N)nc(N3CCCCC3CO)c(C#N)c21 (stereo not given) [5,6-bis(azanyl)-3-tert-butyl-8-[2-(hydroxymethyl)piperidin-1-yl]-2-oxidanylidene-1H-pyrrolo[2,3-c][2,7]naphthyridine-9-carbonitrile] was tested. Which IC50 did it give?
Answer: > 50 µM

Question: With CC(C)Cn1c(N)c(C(=O)COC(=O)c2cc(-c3ccco3)nc3ccccc23)c(=O)n(C)c1=O [2-(2-furanyl)-4-quinolinecarboxylic acid [2-[4-amino-1-methyl-3-(2-methylpropyl)-2,6-dioxo-5-pyrimidinyl]-2-oxoethyl] ester] as the compound, how does the IC50 read?
Answer: 24.2 µM

Question: O=C1C(=C2C(=O)c3ccccc3C2=O)Nc2ccccc21 [MLS000071738] was tested. Which IC50 did it give?
Answer: > 50 µM

Question: CCCCn1c(NC(=O)c2ccccc2)c(C#N)c2nc3ccccc3nc21 [SMR000060333] was tested. Which IC50 did it give?
Answer: 30 µM

Question: How did the IC50 turn out when Cc1nc2cc(-c3cccc(F)c3)nn2c(C)c1CCC(=O)N1CCC2(CC1)OCCO2 [1-(1,4-dioxa-8-azaspiro[4.5]decan-8-yl)-3-[2-(3-fluorophenyl)-5,7-dimethyl-6-pyrazolo[1,5-a]pyrimidinyl]-1-propanone] was run?
Answer: > 50 µM

Question: How did the IC50 turn out when CCn1nc(-c2cccs2)nc2c(=O)n(C)c(=O)nc1-2 [1-ethyl-6-methyl-3-thiophen-2-yl-pyrimido[5,4-e][1,2,4]triazine-5,7-dione] was run?
Answer: 1.24 µM

Question: Cn1ncnc2c(=O)n(C)c(=O)nc1-2 was tested. Which IC50 did it give?
Answer: 0.743 µM

Question: Which IC50 does the source give for COc1ccc(Cn2c(C)nc3c(c2=O)c2nc4ccccc4nc2n3Cc2ccco2)cc1 [MLS000079944] here?
Answer: 21.6 µM

Question: How did the IC50 turn out when CCn1c(SCC(=O)Nc2ccc3c(c2)c2ccccc2n3CC)nnc1-c1ccco1 [MLS000050867] was run?
Answer: 20.3 µM

Question: How did the IC50 turn out when Cc1cc(C)n2c(SCC(=O)N3CCN(S(=O)(=O)c4ccc(Cl)cc4)CC3)nnc2n1 [1-[4-(4-chlorophenyl)sulfonyl-1-piperazinyl]-2-[(5,7-dimethyl-[1,2,4]triazolo[4,3-a]pyrimidin-3-yl)thio]ethanone] was run?
Answer: 48.8 µM

Question: How did the IC50 turn out when O=C1C=Cc2ccccc2C1=O [1,2-dihydronaphthalene-1,2-dione] was run?
Answer: 36.4 µM

Question: For CCCCNC(=O)c1c(N)n(CCCOC)c2nc3ccccc3nc12 [2-amino-N-butyl-1-(3-methoxypropyl)-3-pyrrolo[3,2-b]quinoxalinecarboxamide], which IC50 is on record?
Answer: 47.1 µM

Question: How did the IC50 turn out when N#Cc1c(N)sc(=S)c2c1CCN(Cc1ccccc1)C2 [3-Amino-7-benzyl-1-thioxo-5,6,7,8-tetrahydro-1H-thiopyrano[3,4-c]pyridine-4-carbonitrile] was run?
Answer: 7.34 µM

Question: How did the IC50 turn out when O=C(NC1(O)C(=O)c2ccccc2C1=O)c1ccccc1 [N-(2-hydroxy-1,3-dioxo-2-indenyl)benzamide] was run?
Answer: 48.2 µM

Question: For O=C1Nc2ccccc2SC(c2ccccc2)C1O (stereo not given) [3-hydroxy-2-phenyl-2,3-dihydro-1,5-benzothiazepin-4(5H)-one], which IC50 is on record?
Answer: 33.2 µM

Question: For COCCCn1c(N)c(C(=O)NCCC(C)C)c2nc3ccccc3nc21 [MLS000041744], which IC50 is on record?
Answer: > 50 µM

Question: How did the IC50 turn out when COc1cc(/C=C(/C#N)c2ccc(F)cc2)ccc1OCc1ccc(C(=O)O)o1 [5-({4-[2-cyano-2-(4-fluorophenyl)vinyl]-2-methoxyphenoxy}methyl)-2-furoic acid] was run?
Answer: > 50 µM

Question: With O=C(Nc1ccc2nc(-c3ccco3)c(-c3ccco3)nc2c1)N1CCCCCC1 as the compound, how does the IC50 read?
Answer: 26 µM

Question: With N#Cc1c(NC(=O)c2ccc(Br)o2)n(-c2ccccc2)c2nc3ccccc3nc12 [5-bromanyl-N-(3-cyano-1-phenyl-pyrrolo[3,2-b]quinoxalin-2-yl)furan-2-carboxamide] as the compound, how does the IC50 read?
Answer: 24.4 µM

Question: For O=C(c1cccs1)c1no[n+]([O-])c1C(=O)c1cccs1 [(5-oxidanidyl-4-thiophen-2-ylcarbonyl-1,2,5-oxadiazol-5-ium-3-yl)-thiophen-2-yl-methanone], which IC50 is on record?
Answer: 6.39 µM
